US6462038B1, “Androgen receptor modulator compounds and methods” (Ligand Pharmaceuticals, Inc., priority 1999, dated 2002)

Tested on: immature castrated male rat
Test: immature castrated male rat model: ventral prostate, seminal vesicle and levator ani growth
Assay type: in vivo
Conditions: oral; for LA (wet wt) / LA eff (% intact) / SV (wet wt) / SV eff (% intact) / VP (wet wt) / VP eff (% of intact): Table 4, castrated immature rats, once daily, 3 days
Description: The activity of selected compounds of the present invention as AR agonists was investigated in an immature castrated male rat model, a recognized test of the androgen of a given compound, as described in L. G. Hershberger et al., “Myotrophic Activity of 19-Nortestosterone and Other Steroids Determined by Modified Levator Ani Muscle Method” 83 Proc. Soc. Exptl.
The basis of this assay is the fact that the male sexual accessory organs, such as the prostate and seminal vesicles, play an important role in reproductive function. […] F. Labrie et al. 16 Clin. Invest. […] However, this is not a major pathway, since in both animals and humans, castration leads to almost complete involution of the prostate and seminal vesicles without concomitant adrenalectomy. […] Since the male sex organs are the tissues most responsive to modulation of androgen activity, this model is used to determine the androgen-dependent growth of the sex accessory organs in immature castrated rats. […] Male immature rats ([…], 21-day-old, Sprague-Dawley, Harlan) were castrated under metofane anesthesia. Immediately after surgery, animals groups were dosed for 3 days as follows:
At the end of the 3-day treatment, the animals were sacrificed, and the ventral prostates (VP), seminal vesicles (SV), and levator ani (LA) were collected and weighed. The sexual organ weights were first standardized as mg per 100 g of body weight, and the increase in organ weight induced by the compounds of the present invention was compared to the castrate control animals. […] Super-anova (one factor) was used for statistical analysis.
The gain and loss of sexual organ weights reflect the changes of cell number (DNA content) and cell mass (protein content), depending upon the serum androgen concentration. […] Therefore, measurement of organ wet weights is sufficient to indicate the bioactivity of androgens and androgen antagonists.

O=c1cc(C(F)(F)F)c2cc3c(cc2[nH]1)OCCN3CC(F)(F)F [Compound 105, 1,2,3,6-Tetrahydro-1-(2,2,2-trifluoroethyl)-9-(trifluoromethyl)-7H-[1,4]oxazino[3,2-g]quinolin-7-one]
LA (wet wt) (3 mg/kg): 33.0 ± 2.4 mg/100 g body weight | LA eff (% intact) (3 mg/kg): 306 ± 140% | SV (wet wt) (3 mg/kg): 8.5 ± 0.7 mg/100 g body weight | SV eff (% intact) (3 mg/kg): 15 ± 13% | VP (wet wt) (3 mg/kg): 26.9 ± 1.1 mg/100 g body weight | VP eff (% of intact) (3 mg/kg): 12 ± 5% | LA (wet wt) (10 mg/kg): 36.3 ± 1.3 mg/100 g body weight | LA eff (% intact) (10 mg/kg): 498 ± 73% | SV (wet wt) (10 mg/kg): 9.9 ± 0.4 mg/100 g body weight | SV eff (% intact) (10 mg/kg): 42 ± 8.2% | VP (wet wt) (10 mg/kg): 35.9 ± 2.7 mg/100 g body weight | VP eff (% of intact) (10 mg/kg): 52 ± 12% | LA (wet wt) (30 mg/kg): 35.8 ± 1.2 mg/100 g body weight | LA eff (% intact) (30 mg/kg): 469 ± 71% | SV (wet wt) (30 mg/kg): 11.7 ± 1.4 mg/100 g body weight | SV eff (% intact) (30 mg/kg): 78 ± 26% | VP (wet wt) (30 mg/kg): 30.1 ± 2.1 mg/100 g body weight | VP eff (% of intact) (30 mg/kg): 26 ± 9% | LA (wet wt) (100 mg/kg): 39.7 ± 0.6 mg/100 g body weight | LA eff (% intact) (100 mg/kg): 696 ± 36% | SV (wet wt) (100 mg/kg): 14.4 ± 1.0 mg/100 g body weight | SV eff (% intact) (100 mg/kg): 131 ± 19% | VP (wet wt) (100 mg/kg): 42.1 ± 1.6 mg/100 g body weight | VP eff (% of intact) (100 mg/kg): 80 ± 7% | AR agonist activity: weights of the VP, SV and LA (immature castrated rat, statement in words): exhibited AR agonist activity
